ChEMBL document CHEMBL1201862, “PubChem BioAssay data set” (2004)
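Five concentrations, 48 hours, 96-well plates. Here, GI50 denotes the concentration required for 50% inhibition of growth.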 Calls of active or inactive are those of the source. Rule as the data show it: active = GI50 up to about 1.1 µM and inactive = higher.

Assays:
Test in all cases: NCI anticancer screen, dose series, 48 h
[1] = system: SK-MEL-2
[2] = system: SNB-75
[3] = system: NCI-H226
[4] = system: PC-3
[5] = system: DU-145
[6] = system: NCI-H522
[7] = system: Hs-578T
[8] = system: MOLT-4
[9] = system: SF-268
[10] = system: Malme-3M
[11] = system: MDA-N
[12] = system: NCI/ADR-RES
[13] = system: HL-60
[14] = system: BT-549
[15] = system: SK-MEL-28
[16] = system: MDA-MB-231
[17] = system: SR
[18] = system: TK-10
[19] = system: UACC-62
[20] = system: HCT-15

SMILES	GI50 [1]	GI50 [2]	GI50 [3]	GI50 [4]	GI50 [5]	GI50 [6]	GI50 [7]	GI50 [8]	GI50 [9]	GI50 [10]	GI50 [11]	GI50 [12]	GI50 [13]	GI50 [14]	GI50 [15]	GI50 [16]	GI50 [17]	GI50 [18]	GI50 [19]	GI50 [20] [µM]
CC(=O)OCC(Br)C1(C)CCC(C(C)(C)Br)O1 (stereo not drawn)	39.1 µM (inactive)	58.2 µM (inactive)	32.8 µM (inactive)	29.4 µM (inactive)	> 100 µM (inactive)	28.5 µM (inactive)	17.9 µM (inactive)	73.8 µM (inactive)	> 100 µM (inactive)	83.6 µM (inactive)	44.7 µM (inactive)	> 100 µM (inactive)	> 100 µM (inactive)	79.6 µM (inactive)	79.6 µM (inactive)	> 100 µM (inactive)	77.1 µM (inactive)	> 100 µM (inactive)	–	–
N#CCc1nc(C#N)c(N)o1	> 100 µM (inactive)	–	> 100 µM (inactive)	> 100 µM (inactive)	> 100 µM (inactive)	> 100 µM (inactive)	> 100 µM (inactive)	> 100 µM (inactive)	> 100 µM (inactive)	< 0.01 µM (active)	> 100 µM (inactive)	> 100 µM (inactive)	–	> 100 µM (inactive)	> 100 µM (inactive)	> 100 µM (inactive)	> 100 µM (inactive)	> 100 µM (inactive)	> 100 µM (inactive)	> 100
Cc1ccc2[nH]c3c(c2c1)C1CCC(C(C)(C)C)CC1C1C(=O)N(c2ccc4c(c2)OCO4)C(=O)C31 (stereo not drawn)	7.18 µM (inactive)	–	2.84 µM (inactive)	3.07 µM (inactive)	2.99 µM (inactive)	2.67 µM (inactive)	1.55 µM (inactive)	1.81 µM (inactive)	2.03 µM (inactive)	2.23 µM (inactive)	5.41 µM (inactive)	3.1 µM (inactive)	2.72 µM (inactive)	7.87 µM (inactive)	5.61 µM (inactive)	2.29 µM (inactive)	1.91 µM (inactive)	2.05 µM (inactive)	10.8 µM (inactive)	5.21
Cc1c(NC(=O)CSC(=S)N2CCN(Cc3ccccc3)CC2)c(=O)n(-c2ccccc2)n1C	> 100 µM (inactive)	–	> 100 µM (inactive)	> 100 µM (inactive)	> 100 µM (inactive)	> 100 µM (inactive)	> 100 µM (inactive)	> 100 µM (inactive)	> 100 µM (inactive)	> 100 µM (inactive)	> 100 µM (inactive)	> 100 µM (inactive)	–	> 100 µM (inactive)	> 100 µM (inactive)	> 100 µM (inactive)	> 100 µM (inactive)	> 100 µM (inactive)	–	> 100
O=C1CC(=O)NC(NN2C(=O)CSC2c2ccc(Cl)c(Cl)c2)=N1 (stereo not drawn)	> 100 µM (inactive)	75 µM (inactive)	> 100 µM (inactive)	> 100 µM (inactive)	> 100 µM (inactive)	71.8 µM (inactive)	> 100 µM (inactive)	23.3 µM (inactive)	> 100 µM (inactive)	> 100 µM (inactive)	82.8 µM (inactive)	> 100 µM (inactive)	–	> 100 µM (inactive)	> 100 µM (inactive)	> 100 µM (inactive)	43.8 µM (inactive)	> 100 µM (inactive)	42.6 µM (inactive)	> 100
N#CSC#CCCC#CSC#N	20.3 µM (inactive)	–	25.1 µM (inactive)	20.9 µM (inactive)	15 µM (inactive)	2.2 µM (inactive)	23.5 µM (inactive)	2.58 µM (inactive)	30.1 µM (inactive)	17.9 µM (inactive)	18.2 µM (inactive)	28.2 µM (inactive)	> 100 µM (inactive)	21.7 µM (inactive)	29.4 µM (inactive)	17.7 µM (inactive)	7.21 µM (inactive)	17.9 µM (inactive)	17 µM (inactive)	18.2
C=CCOC1(CC=C)C(=O)OC2C(O)COC21O (stereo not drawn)	> 100 µM (inactive)	–	> 100 µM (inactive)	> 100 µM (inactive)	> 100 µM (inactive)	> 100 µM (inactive)	> 100 µM (inactive)	> 100 µM (inactive)	> 100 µM (inactive)	> 100 µM (inactive)	> 100 µM (inactive)	> 100 µM (inactive)	> 100 µM (inactive)	> 100 µM (inactive)	> 100 µM (inactive)	> 100 µM (inactive)	> 100 µM (inactive)	> 100 µM (inactive)	> 100 µM (inactive)	> 100
N#CC1=C(N2CCOCC2)CCC1	> 100 µM (inactive)	> 100 µM (inactive)	> 100 µM (inactive)	> 100 µM (inactive)	> 100 µM (inactive)	> 100 µM (inactive)	> 100 µM (inactive)	> 100 µM (inactive)	> 100 µM (inactive)	> 100 µM (inactive)	52.6 µM (inactive)	> 100 µM (inactive)	> 100 µM (inactive)	> 100 µM (inactive)	–	> 100 µM (inactive)	> 100 µM (inactive)	> 100 µM (inactive)	> 100 µM (inactive)	> 100
